In ChEMBL document CHEMBL1201862, “PubChem BioAssay data set” (2004):
Several values for one entry are separate records, joined by “and”; a condition that tells them apart may be missing. Equal entries are not always repeated.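 Dose response: 5 concentrations. Exposure: 48 h. Format: 96-well plates. Endpoint: linear interpolation; highest concentration if not reached. GI50 marks 50% less growth.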 Activity calls are given as the source filed them. Cut-off read from the data, not from the text of the source: active = GI50 up to about 1.1 µM and inactive = higher.

How the values were obtained:
Assay in all cases: inhibition of tumour cell growth, NCI panel, 48 h
NCI-H226 = tested on: NCI-H226
SF-268 = tested on: SF-268
M14 = tested on: M14
SN12C = tested on: SN12C
HOP-92 = tested on: HOP-92
HOP-62 = tested on: HOP-62
IGROV-1 = tested on: IGROV-1
SF-295 = tested on: SF-295
OVCAR-8 = tested on: OVCAR-8
SNB-75 = tested on: SNB-75
UACC-257 = tested on: UACC-257
SF-539 = tested on: SF-539
OVCAR-4 = tested on: OVCAR-4
OVCAR-5 = tested on: OVCAR-5
MOLT-4 = tested on: MOLT-4
HT-29 = tested on: HT-29
SR = tested on: SR

Structure (SMILES)	GI50 (NCI-H226)	GI50 (SF-268)	GI50 (M14)	GI50 (SN12C)	GI50 (HOP-92)	GI50 (HOP-62)	GI50 (IGROV-1)	GI50 (SF-295)	GI50 (OVCAR-8)	GI50 (SNB-75)	GI50 (UACC-257)	GI50 (SF-539)	GI50 (OVCAR-4)	GI50 (OVCAR-5)	GI50 (MOLT-4)	GI50 (HT-29)	GI50 (SR)
CC(=O)CC(=O)N(CCN(C(=O)CC(C)=O)c1ccccc1)c1ccccc1	> 100 µM (inactive)	> 100 µM (inactive)	> 100 µM (inactive)	> 100 µM (inactive)	> 100 µM (inactive)	> 100 µM (inactive)	> 100 µM (inactive)	> 100 µM (inactive)	> 100 µM (inactive)	51.8 µM (inactive)	32.2 µM (inactive)	> 100 µM (inactive)	> 100 µM (inactive)	> 100 µM (inactive)	> 100 µM (inactive)	–	–
CC1=CCCC2C(C=O)(C1)CC(C)C2(CO)CC/C(=C/CO)CO (stereo unspecified)	38.5 µM (inactive)	–	> 100 µM (inactive)	> 100 µM (inactive)	30 µM (inactive)	–	> 100 µM (inactive)	> 100 µM (inactive)	> 100 µM (inactive)	37.8 µM (inactive)	98.9 µM (inactive)	–	–	–	44.7 µM (inactive)	> 100 µM (inactive)	–
C\C=C/C=C/C=C/C(=O)O	> 100 µM (inactive)	> 100 µM (inactive)	> 100 µM (inactive)	> 100 µM (inactive)	–	> 100 µM (inactive)	> 100 µM (inactive)	> 100 µM (inactive)	> 100 µM (inactive)	> 100 µM (inactive)	> 100 µM (inactive)	> 100 µM (inactive)	> 100 µM (inactive)	> 100 µM (inactive)	> 100 µM (inactive)	> 100 µM (inactive)	–
COc1c(O)c2c3c(c(C)cc(O)c3c1O)C(=O)C(O)(C(C)(C)C(C)=O)C2=O (stereo unspecified)	19.3 µM (inactive)	> 100 µM (inactive)	> 100 µM (inactive)	> 100 µM (inactive) and 82.4 µM (inactive)	> 100 µM (inactive)	> 100 µM (inactive)	> 100 µM (inactive)	–	> 100 µM (inactive)	> 100 µM (inactive) and 61 µM (inactive)	> 100 µM (inactive)	> 100 µM (inactive)	> 100 µM (inactive)	> 100 µM (inactive)	> 100 µM (inactive)	> 100 µM (inactive)	–
O=C(c1ccccc1)C1N=NN(Cc2ccccc2[N+](=O)[O-])C1C(=O)c1ccccc1 (stereo unspecified)	> 100 µM (inactive)	> 100 µM (inactive)	> 100 µM (inactive)	–	> 100 µM (inactive)	> 100 µM (inactive)	> 100 µM (inactive)	> 100 µM (inactive)	> 100 µM (inactive)	41.5 µM (inactive)	> 100 µM (inactive)	–	> 100 µM (inactive)	> 100 µM (inactive)	> 100 µM (inactive)	> 100 µM (inactive)	> 100 µM (inactive)
CC1(O)CC2C(CC1SC1CC3C(CC1(C)O)C3(C)C)C2(C)C (stereo unspecified)	65.6 µM (inactive)	> 100 µM (inactive)	48.2 µM (inactive)	36.1 µM (inactive)	36.2 µM (inactive)	–	45 µM (inactive)	46 µM (inactive)	41.9 µM (inactive)	27.9 µM (inactive)	49 µM (inactive)	> 100 µM (inactive)	21.7 µM (inactive)	78.9 µM (inactive)	43.1 µM (inactive)	39.6 µM (inactive)	–
CC1=C(C(=O)NCc2ccccc2)C(c2ccc(Cl)c(Cl)c2)C(C(=O)NCc2ccccc2)=C(C)N1	> 100 µM (inactive)	> 100 µM (inactive)	> 100 µM (inactive)	> 100 µM (inactive)	> 100 µM (inactive)	> 100 µM (inactive)	> 100 µM (inactive)	> 100 µM (inactive)	> 100 µM (inactive)	> 100 µM (inactive)	> 100 µM (inactive)	> 100 µM (inactive)	> 100 µM (inactive)	> 100 µM (inactive)	> 100 µM (inactive)	> 100 µM (inactive)	> 100 µM (inactive)
Clc1ccc(OCc2nnc3n2N=C(c2ccccc2)CS3)cc1	21.5 µM (inactive)	14.3 µM (inactive)	21.5 µM (inactive)	11.7 µM (inactive)	20.9 µM (inactive)	19.1 µM (inactive)	4.47 µM (inactive)	19.3 µM (inactive)	14.1 µM (inactive)	27 µM (inactive)	14.9 µM (inactive)	18.2 µM (inactive)	15.6 µM (inactive)	21.3 µM (inactive)	9.68 µM (inactive)	16.3 µM (inactive)	6.5 µM (inactive)
O=C1C2C(C(=O)N1c1ccccc1)C1([N+](=O)[O-])C=C3c4ccccc4N(C(=O)c4ccccc4)C32C2C(=O)N(c3ccccc3)C(=O)C21 (stereo unspecified)	–	> 100 µM (inactive)	> 100 µM (inactive)	> 100 µM (inactive)	> 100 µM (inactive)	> 100 µM (inactive)	> 100 µM (inactive)	> 100 µM (inactive)	> 100 µM (inactive)	> 100 µM (inactive)	> 100 µM (inactive)	> 10 µM (inactive)	–	> 100 µM (inactive)	> 100 µM (inactive)	> 100 µM (inactive)	> 100 µM (inactive)
CC(=O)Oc1ccc(Nn2c3ccccc3c3ccccc32)c(C)c1	–	45.9 µM (inactive)	29 µM (inactive)	41.5 µM (inactive)	24.5 µM (inactive)	36.1 µM (inactive)	23.6 µM (inactive)	25.8 µM (inactive)	24.3 µM (inactive)	–	33.4 µM (inactive)	> 10 µM (inactive)	–	> 100 µM (inactive)	23.4 µM (inactive)	–	21.7 µM (inactive)
CC(C)N(C(=O)C12C3C4C1C1C2C3C41I)C(C)C (stereo unspecified)	> 100 µM (inactive)	> 100 µM (inactive)	> 100 µM (inactive)	> 100 µM (inactive)	88.9 µM (inactive)	–	> 100 µM (inactive)	> 100 µM (inactive)	> 100 µM (inactive)	> 100 µM (inactive)	–	> 10 µM (inactive)	> 100 µM (inactive)	84.3 µM (inactive)	> 100 µM (inactive)	> 100 µM (inactive)	> 100 µM (inactive)
CCN(c1n[n+]2c(-c3ccccc3)csc2s1)c1n[n+]2c(-c3ccccc3)csc2s1	> 100 µM (inactive)	> 100 µM (inactive)	92.5 µM (inactive)	> 100 µM (inactive)	> 100 µM (inactive)	–	> 100 µM (inactive)	> 100 µM (inactive)	74.3 µM (inactive)	> 100 µM (inactive)	36.9 µM (inactive)	> 100 µM (inactive)	35.4 µM (inactive)	> 100 µM (inactive)	37.5 µM (inactive)	66.1 µM (inactive)	20.5 µM (inactive)
N#CC1=C(Cl)NC(Cl)=C(C#N)C1c1ccc(Cl)cc1	20.5 µM (inactive)	18.7 µM (inactive)	16.8 µM (inactive)	16.9 µM (inactive)	15.2 µM (inactive)	18.1 µM (inactive)	18.2 µM (inactive)	27.2 µM (inactive)	16.2 µM (inactive)	14.9 µM (inactive)	18.3 µM (inactive)	18.1 µM (inactive)	–	34 µM (inactive)	18.7 µM (inactive)	16 µM (inactive)	21.7 µM (inactive)
CN1C(=O)C(=CN(C)c2ccccc2)C(=O)N(C)C1=O	63.2 µM (inactive)	–	74.5 µM (inactive)	> 100 µM (inactive)	–	–	56.5 µM (inactive)	> 100 µM (inactive)	> 100 µM (inactive)	92.7 µM (inactive)	> 100 µM (inactive)	> 100 µM (inactive)	> 100 µM (inactive)	> 100 µM (inactive)	> 100 µM (inactive)	–	37.2 µM (inactive)
Fc1cccc(/C=N/C23CC4CC(CC(C4)C2)C3)c1	> 100 µM (inactive)	> 100 µM (inactive)	> 100 µM (inactive)	> 100 µM (inactive)	> 100 µM (inactive)	> 100 µM (inactive)	> 100 µM (inactive)	> 100 µM (inactive)	> 100 µM (inactive)	> 100 µM (inactive)	> 100 µM (inactive)	> 100 µM (inactive)	> 100 µM (inactive)	> 100 µM (inactive)	> 100 µM (inactive)	> 100 µM (inactive)	–
COc1ccc(C2ON(c3cccc(C)n3)CC=C2C)cc1 (stereo unspecified)	> 100 µM (inactive)	60.1 µM (inactive)	32.6 µM (inactive)	70.6 µM (inactive)	–	65.3 µM (inactive)	60.8 µM (inactive)	59.8 µM (inactive)	> 100 µM (inactive)	29 µM (inactive)	31 µM (inactive)	60 µM (inactive)	62.5 µM (inactive)	> 100 µM (inactive)	36.4 µM (inactive)	32 µM (inactive)	30.1 µM (inactive)
CC1(Cl)CC(C)(/C=C/Cl)C(Cl)CC1Cl (stereo unspecified)	–	15.9 µM (inactive)	17 µM (inactive)	17.3 µM (inactive)	0.615 µM (active)	19.9 µM (inactive)	12.9 µM (inactive)	15.2 µM (inactive)	16.8 µM (inactive)	18.8 µM (inactive)	–	17.1 µM (inactive)	17.7 µM (inactive)	18.9 µM (inactive)	14.3 µM (inactive)	11.6 µM (inactive)	18.2 µM (inactive)
CCOc1ccccc1NC(=O)C1=C(C)NC(C)=C(C(=O)Nc2ccccc2OCC)C1c1cccc([N+](=O)[O-])c1	80.4 µM (inactive)	> 100 µM (inactive)	> 100 µM (inactive)	> 100 µM (inactive)	4.29 µM (inactive)	39.3 µM (inactive)	> 100 µM (inactive)	> 100 µM (inactive)	86.5 µM (inactive)	11.6 µM (inactive)	27.2 µM (inactive)	40.2 µM (inactive)	14.2 µM (inactive)	> 100 µM (inactive)	11.8 µM (inactive)	98.4 µM (inactive)	–
